Measurements reported in patent US20260241046A1, “PROSTATE-SPECIFIC MEMBRANE ANTIGEN RECEPTOR-TARGETING RADIOPHARMACEUTICALS AND USES THEREOF” (Nuclidium AG, priority 2024, published 2026).

Tested on: LNCaP xenografted mice
Assay: PET/CT imaging in mice
Format: in vivo
Protocol: Unless otherwise specified, the in vivo studies were performed on athymic nude Foxn1^nu 4-6-week-old mice. Animals were injected in the shoulder with LNCaP cells (10^7 cells/200 μL) suspended in 1:1 (v: v) EMEM EBS medium and Matrigel. The in vivo experiments were performed when tumors reached a volume between 100-500 mm^3. At the intervention, all mice were between 7 and 11 weeks old. All animal experiments were performed following the guidelines for the use of living animals in scientific studies and the Swiss regulations for the protection of animals.
LNCap xenografted mice were injected i.v. into the tail vein with 4-8 MBq (400 pmol) of [^61Cu]Cu-NODAGA-PSMA I&T diluted in 100 μL saline solution. Dynamic PET scans were acquired for 1 hour upon injection of the radiotracer. The mice were euthanized using carbon dioxide at 4 hours post-injection, the bladder was mechanically emptied, and static PET scans were acquired for 30 min. PET images were obtained using the β-CUBE PET scanner system (MOLECUBES, Gent, Belgium) and were decay corrected and reconstructed with the VivoQuant software version 4.0. Tomograms and helical CT scans of the whole mouse were first acquired using a NanoSPECT/CTTM scanner (Bioscan Inc.). CT images were reconstructed using CTReco (version r1.146), resulting in a pixel size of 0.2 mm. […]

## O=C([O-])CN1CCN(CC(=O)[O-])CCN([C@H](CCC(=O)N[C@H](Cc2ccc(O)c(I)c2)C(=O)N[C@H](Cc2ccccc2)C(=O)N[C@H](CCCCNC(=O)CCCCCCC(=O)NCCCC[C@H](NC(=O)N[C@@H](CCC(=O)O)C(=O)O)C(=O)O)C(=O)O)C(=O)O)CC1.[61Cu+2] [[^61Cu]Cu-NODAGA-PSMA I&T]
  time of maximum accumulation in the tumor: 1 hour post-injection
  time of optimal tumor-to-background signal ratio: 4 hours post-injection
